Results on one compound are retold here after article PMC7875911 (Frontiers in Pharmacology, 2021).

Where “and” joins values, the source holds several entries; their conditions need not be identical. Equal entries are not always repeated. Where two headings read alike, the source gives them in different places.

Assay [1] relates to TTXs-I Na in small-diameter IB4 ^± DRG neurons. As for the experimental part: (§1) Spinal level L3–L5 DRG were removed and placed in ice-cold HEPES-buffered saline (HBS) composed of (in mM): 154 NaCl, 2.5 KCl, 1.8 CaCl2, 1.5 MgCl2, 10 HEPES, and 10 glucose (pH 7.4, 330 ± 5 mOsm). Iridectomy scissors were utilized to cut up ganglia before incubation at 37°C for 15 min in oxygenated HBS containing 5 mg ml^−1 collagenase type 2 (Worthington Biochemical Corp, Lakewood, NJ, United States) followed by 25 min in oxygenated HBS containing 1 mg ml^−1 papain (Worthington Biochemical Corp). […] After enzyme treatment, ganglia were placed in 3 ml of HBS following two room temperature HBS washes. Ganglia were then triturated through fire-polished Pasteur pipettes with decreasing bores to extract cells. Finally, the cells mixed in HBS were plated onto surface modified culture dishes (Corning Primaria™ easy grip). […] DRG cells were pre-treated with 1 μg ml^−1 Alexa Fluor 488-conjugated Bandeiraea simplicifolia IB4 (Invitrogen) for 5 min at room temperature and washed with HBS for 5 min before fluorescence was examined on the inverted microscope (Olympus, IX50) used for patch clamp recordings.
(§2) Cell size was determined from an eyepiece graticule. Whole-cell electrophysiology was conducted at room temperature (22–24°C) in culture dishes perfused with room temperature HBS. The intracellular pipette solution contained (mM): 120 CsCl, 10 HEPES, 10 EGTA, 2 CaCl2, 5 MgATP, 5 Na2GTP, 5 NaCl; pH 7.3 (CsOH); 285 ± 5 mos mol l^−1.
(§3) An EPC-9 patch-clamp amplifier and corresponding PULSE software from HEKA Electronik (Lambrecht/Pfalz, Germany) were used to make recordings. Currents were sampled at 50 kHz and recorded on a hard disk. Borosilicate glass from AM Systems, Everett, WA, United States were used for patch pipettes. The input resistance of the pipettes ranged from 2 to 4 MΩ. […] A built-in procedure of the HEKA amplifier compensated for the capacitive transient currents. A −P/6 protocol was utilized to subtract leak current online. I Ca was generated with the recording protocol which included a depolarization from a holding potential of −80 mV to 0 mV for 10 ms every 30 s. I Na was generated through a recording protocol which included a step depolarization from a holding potential of −80 mV to 0 mV for 10 ms at a frequency of 0.1 Hz. Cells were perfused with the test compound via a pressure driven perfusion system (AutoMate Scientific, United States).
(§4) All data analysis and graphs were generated in OriginPro (Origin Lab Corporation, United States). […] Activation and SSI curves were fit by the modified Boltzmann equation: I or G=1/(1+exp(Vm−V0.5/ka)) Where I is the current or G is the conductance, Vm is the pre-pulse potential, V 0.5 is the half-maximal activation potential and ka is the slope factor.
(§5) Statistical significance (p < 0.05) was determined using unpaired Student’s t-test or 1-way ANOVA followed by a Tukey multiple comparison. All data is presented as mean ± SEM (n), where n is individual cells.

For assay [2], the system named is TTXs-I Na in small-diameter IB4 ^− DRG neurons. The procedure: as §1, §2, §3, §4, §5
The test system of another assay is animal pain models. The conditions noted are these: in vivo, cited from earlier work. The source says:
[…]. Nav channels are structurally related to voltage-gated calcium (Cav) channels, Cav1 and Cav2. […] […].

The test system of assay [3] is Cav1.2, Cav1.3, Cav2.1, and Cav2.2. The procedure:
Human embryonic kidney (HEK293T) cells containing the SV40 Large T-antigen were cultured at 37°C, 5% CO2 in Dulbecco’s Modified Eagle’s Medium (DMEM, Invitrogen Life Technologies, Australia), supplemented with 10% fetal bovine serum (FBS, Bovigen, Australia), 1% GlutaMAX and penicillin-streptomycin (Invitrogen, Australia). […]
(§6) Depolarization-activated Ca^2+ currents (ICa) in transfected HEK293 cells were recorded in the whole-cell patch clamp configuration. Data were recorded using a MultiClamp 700B amplifier, digitized with a DigiData1440 and controlled using Clampex10.7 software (Molecular Devices, United States). […]
(§7) Statistical significance (p < 0.05) was determined using unpaired Student’s t-test or 1-way ANOVA followed by a Tukey multiple comparison. […]
Numerous HVA Cav channel isoforms are present in rat DRG neurons. […] We transiently co-transfected the individual Cav channel α-subunits of interest together with β3 and α2δ1 subunits in HEK293 cells and measured whole-cell I Ca currents by patch clamp. […]

Assay [4] concerns mouse models of acute postsurgical pain. The conditions noted are these: in vivo; cited from earlier work.
Assay [5] has as its system HVA I Ca in small-diameter IB4 ^− DRG neurons. The assay is described as follows: cells. The procedure: as §1, §2, §3, §4, §5
The next assay addresses T1, hCav2.2 (Homo sapiens, UniProt Q00975).
T1 construct: expressed in transfected cells; host or cells: HEK293 (HEK293T), transient calcium phosphate co-transfection
The assay is described as follows: hCav2.2 steady-state inactivation (SSI). Format: cell-based. The procedure:
Human embryonic kidney (HEK293T) cells containing the SV40 Large T-antigen were cultured at 37°C, 5% CO2 in Dulbecco’s Modified Eagle’s Medium (DMEM, Invitrogen Life Technologies, Australia), supplemented with 10% fetal bovine serum (FBS, Bovigen, Australia), 1% GlutaMAX and penicillin-streptomycin (Invitrogen, Australia). HEK293 cells were then transiently co-transfected with the different voltage-gated calcium channel isoforms and green fluorescent protein (GFP) for visualization, using the calcium phosphate method. cDNAs encoding mCav1.2 (a gift from Dr. D. Lipscombe; Addgene plasmid #26572) ([Helton et al., 2005]), rCav1.3 (a gift from Dr. D. Lipscombe; Addgene plasmid # 49,333) ([Xu and Lipscombe, 2001]), hCav2.1 (a gift from Dr. J. Striessnig), rCav2.2 (a gift from Dr. D. Lipscombe), hCav2.2 (a gift from Dr. D. Yue), hCav2.3 (purchased from GenScript United States Inc.) were co-transfected with β3, α2δ1 and GFP. […]
as §6, §7

T1 sequence (P54289 25-956): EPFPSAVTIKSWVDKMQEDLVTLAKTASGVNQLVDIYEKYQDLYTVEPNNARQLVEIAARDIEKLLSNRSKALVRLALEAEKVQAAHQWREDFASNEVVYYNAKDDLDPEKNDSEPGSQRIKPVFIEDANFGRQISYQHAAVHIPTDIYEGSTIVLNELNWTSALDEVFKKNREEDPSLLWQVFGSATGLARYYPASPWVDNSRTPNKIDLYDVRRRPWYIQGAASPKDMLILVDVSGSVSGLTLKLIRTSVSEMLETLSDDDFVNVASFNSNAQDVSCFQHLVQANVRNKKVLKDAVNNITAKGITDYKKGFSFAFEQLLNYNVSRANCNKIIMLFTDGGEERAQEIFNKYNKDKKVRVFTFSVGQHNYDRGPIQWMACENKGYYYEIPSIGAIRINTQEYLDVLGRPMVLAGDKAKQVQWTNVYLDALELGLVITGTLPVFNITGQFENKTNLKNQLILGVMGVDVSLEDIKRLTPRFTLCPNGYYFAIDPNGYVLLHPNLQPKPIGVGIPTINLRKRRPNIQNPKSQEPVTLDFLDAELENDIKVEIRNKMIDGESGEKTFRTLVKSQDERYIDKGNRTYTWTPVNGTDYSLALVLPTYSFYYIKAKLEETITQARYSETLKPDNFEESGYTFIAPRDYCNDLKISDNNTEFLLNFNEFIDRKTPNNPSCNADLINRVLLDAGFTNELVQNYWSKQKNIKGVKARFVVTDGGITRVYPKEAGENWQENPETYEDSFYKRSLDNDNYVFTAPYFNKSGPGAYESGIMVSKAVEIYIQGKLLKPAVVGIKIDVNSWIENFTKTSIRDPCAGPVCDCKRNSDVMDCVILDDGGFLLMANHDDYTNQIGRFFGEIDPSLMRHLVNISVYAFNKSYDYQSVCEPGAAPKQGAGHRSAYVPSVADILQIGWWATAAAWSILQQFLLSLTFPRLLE
T1 sequence (P54289 957-1103): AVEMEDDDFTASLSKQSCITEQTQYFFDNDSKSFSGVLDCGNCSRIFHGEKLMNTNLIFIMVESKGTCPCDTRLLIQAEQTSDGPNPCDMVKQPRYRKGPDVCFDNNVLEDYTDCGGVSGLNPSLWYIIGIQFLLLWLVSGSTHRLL
T1 sequence (Q00975 whole entry): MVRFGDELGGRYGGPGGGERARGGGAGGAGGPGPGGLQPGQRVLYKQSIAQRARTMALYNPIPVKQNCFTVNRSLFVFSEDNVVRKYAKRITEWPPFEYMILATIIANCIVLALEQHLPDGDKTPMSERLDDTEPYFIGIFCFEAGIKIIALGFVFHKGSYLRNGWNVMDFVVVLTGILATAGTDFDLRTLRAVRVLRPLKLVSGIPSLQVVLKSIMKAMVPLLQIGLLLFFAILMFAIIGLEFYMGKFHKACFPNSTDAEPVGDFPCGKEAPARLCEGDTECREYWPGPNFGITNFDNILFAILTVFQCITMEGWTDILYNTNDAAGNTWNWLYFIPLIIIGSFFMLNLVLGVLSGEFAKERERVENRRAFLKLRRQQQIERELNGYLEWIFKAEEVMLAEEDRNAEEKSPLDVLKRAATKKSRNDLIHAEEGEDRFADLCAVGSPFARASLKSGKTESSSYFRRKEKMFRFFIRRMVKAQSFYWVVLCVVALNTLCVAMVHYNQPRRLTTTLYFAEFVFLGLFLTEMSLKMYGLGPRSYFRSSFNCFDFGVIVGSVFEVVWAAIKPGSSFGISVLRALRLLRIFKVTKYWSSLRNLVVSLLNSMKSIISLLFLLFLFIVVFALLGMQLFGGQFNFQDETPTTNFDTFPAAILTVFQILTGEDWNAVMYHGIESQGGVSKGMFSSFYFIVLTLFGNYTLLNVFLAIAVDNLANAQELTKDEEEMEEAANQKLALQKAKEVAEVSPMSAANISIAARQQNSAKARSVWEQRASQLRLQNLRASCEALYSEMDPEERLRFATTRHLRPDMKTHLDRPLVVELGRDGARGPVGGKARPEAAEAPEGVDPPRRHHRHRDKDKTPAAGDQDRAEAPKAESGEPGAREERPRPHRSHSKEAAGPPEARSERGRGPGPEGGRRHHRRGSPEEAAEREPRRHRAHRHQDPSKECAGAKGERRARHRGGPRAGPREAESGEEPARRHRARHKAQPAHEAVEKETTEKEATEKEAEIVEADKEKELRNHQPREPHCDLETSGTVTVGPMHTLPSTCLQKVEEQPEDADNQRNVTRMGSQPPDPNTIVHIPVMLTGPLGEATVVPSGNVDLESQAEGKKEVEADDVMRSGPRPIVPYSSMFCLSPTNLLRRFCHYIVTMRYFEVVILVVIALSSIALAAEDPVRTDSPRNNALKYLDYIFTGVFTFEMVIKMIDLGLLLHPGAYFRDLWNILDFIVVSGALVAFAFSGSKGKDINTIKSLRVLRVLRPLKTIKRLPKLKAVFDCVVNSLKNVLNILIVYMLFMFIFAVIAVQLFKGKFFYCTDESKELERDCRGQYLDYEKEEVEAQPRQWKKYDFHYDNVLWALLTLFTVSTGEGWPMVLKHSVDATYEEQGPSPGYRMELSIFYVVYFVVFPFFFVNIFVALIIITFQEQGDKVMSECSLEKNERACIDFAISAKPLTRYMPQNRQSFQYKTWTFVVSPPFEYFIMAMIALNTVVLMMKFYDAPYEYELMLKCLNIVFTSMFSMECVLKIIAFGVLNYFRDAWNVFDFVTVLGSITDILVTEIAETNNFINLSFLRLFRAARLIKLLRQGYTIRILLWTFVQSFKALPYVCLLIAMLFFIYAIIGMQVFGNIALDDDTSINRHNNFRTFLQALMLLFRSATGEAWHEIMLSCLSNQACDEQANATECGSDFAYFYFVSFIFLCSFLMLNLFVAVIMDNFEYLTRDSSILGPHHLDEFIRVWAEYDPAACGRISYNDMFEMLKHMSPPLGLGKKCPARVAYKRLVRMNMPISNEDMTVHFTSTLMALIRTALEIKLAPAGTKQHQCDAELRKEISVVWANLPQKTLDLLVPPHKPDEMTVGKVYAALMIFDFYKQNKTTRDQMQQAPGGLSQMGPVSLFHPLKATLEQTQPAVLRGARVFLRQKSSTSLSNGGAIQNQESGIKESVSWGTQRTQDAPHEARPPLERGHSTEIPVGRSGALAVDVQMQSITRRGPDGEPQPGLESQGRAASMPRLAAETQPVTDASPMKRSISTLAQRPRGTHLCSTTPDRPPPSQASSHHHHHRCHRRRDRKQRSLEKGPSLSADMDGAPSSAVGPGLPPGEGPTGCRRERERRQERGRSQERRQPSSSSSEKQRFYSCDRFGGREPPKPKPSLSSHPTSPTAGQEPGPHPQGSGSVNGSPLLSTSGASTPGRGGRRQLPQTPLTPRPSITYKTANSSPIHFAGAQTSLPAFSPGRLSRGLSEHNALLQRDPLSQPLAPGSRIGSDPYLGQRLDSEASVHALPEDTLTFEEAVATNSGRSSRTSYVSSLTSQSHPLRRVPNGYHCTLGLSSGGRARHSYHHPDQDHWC
T1 sequence (P54284 whole entry, further chain): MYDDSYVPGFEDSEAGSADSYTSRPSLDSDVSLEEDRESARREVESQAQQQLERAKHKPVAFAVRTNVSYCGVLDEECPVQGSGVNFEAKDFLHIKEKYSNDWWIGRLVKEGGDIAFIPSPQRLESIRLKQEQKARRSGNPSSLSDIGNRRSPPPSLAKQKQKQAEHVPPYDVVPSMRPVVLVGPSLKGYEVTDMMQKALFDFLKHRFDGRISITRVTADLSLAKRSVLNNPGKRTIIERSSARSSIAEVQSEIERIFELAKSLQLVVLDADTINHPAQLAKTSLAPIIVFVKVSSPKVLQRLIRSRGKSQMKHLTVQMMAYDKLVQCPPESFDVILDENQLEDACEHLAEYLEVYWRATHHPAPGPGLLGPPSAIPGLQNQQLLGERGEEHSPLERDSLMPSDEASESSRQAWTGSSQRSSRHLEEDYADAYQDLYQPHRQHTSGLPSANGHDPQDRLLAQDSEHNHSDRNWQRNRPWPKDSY

On to `CSCC[C@@H]1NC(=O)[C@H](Cc2ccc(O)cc2)NC(=O)[C@H](CCCNC(=N)N)NC(=O)[C@@H](NC(=O)[C@@H](N)CC(=O)O)CSSC[C@@H]2NC(=O)[C@@H]3CSSC[C@@H](C(=O)N[C@@H](C)C(=O)N[C@@H](Cc4c[nH]c5ccccc45)C(=O)N[C@@H](CC(=O)O)C(=O)N[C@@H](Cc4ccccc4)C(=O)N[C@H](C(=O)N[C@@H](Cc4ccccc4)C(=O)N[C@H](C(=O)O)[C@@H](C)O)[C@@H](C)O)NC(=O)[C@H](Cc4ccc(O)cc4)NC(=O)[C@H](CCCCN)NC(=O)[C@H](CCSC)NC(=O)[C@H](CCCCN)NC(=O)[C@H](CCCNC(=N)N)NC(=O)[C@H](CCCCN)NC(=O)[C@H](CSSC[C@H](NC(=O)[C@H](CC(=O)O)NC(=O)CNC(=O)[C@H](Cc4ccccc4)NC1=O)C(=O)N[C@@H](CCC(=O)O)C(=O)N[C@@H](CCCCN)C(=O)N[C@@H](CC(=O)O)C(=O)N[C@@H](CCC(=O)O)C(=O)N[C@@H](CC(=O)O)C(=O)N3)NC(=O)CNC(=O)[C@H](CC(C)C)NC(=O)[C@H](Cc1c[nH]cn1)NC(=O)[C@H](CCCCN)NC2=O` [Pn3a, µ-Theraphotoxin-Pn3a], for which, in assay [1], the “I Na remaining after application” value was around 50% and the “reversibility on washout of TTXs-I Na inhibition” value is given as “fully reversible upon washout”. Further, in assay [2], the “I Na remaining after application” value was around 50%, the “potency loss versus reported recombinant hNav1.7” value is listed as around 250 fold and the “reversibility on washout of TTXs-I Na inhibition” value is “fully reversible upon washout”. In addition, in the assay with animal pain models (1 mg/kg), the “analgesia/anti-allodynia on co-administration with opioids (in words)” value is on record as “significant analgesia/anti-allodynia”. For the same compound, in the assay on animal pain models, the “analgesia in various animal pain models (in words)” value is on record as “fails to produce analgesia” and the “effect in rodent models of acute nociception or inflammatory pain (in words)” value is given as “ineffective”. Moreover, in assay [3], the “reversibility of block on washout” value is given as “fully reversible upon washout”. For the same compound, in assay [4], the “antinociceptive behavior in acute postsurgical pain (in words)” value was “causes antinociceptive behavior”. For the same compound, in assay [5], the “HVA I Ca spared” value is “half”, the “inhibition of HVA I Ca” value was 4.45 ± 0.78% and the “suppression of I Ca” value worked out at 13.97 ± 1.39%. Besides, the “inhibition of HVA I Ca” value in assay [5] (10 µM) was ~55% and 56.5 ± 1.9%. Moreover, on hCav2.2, the “V0.5 of steady-state inactivation” value is listed as −69.8 ± 0.3 mV and the “slope factor ka of steady-state inactivation” value worked out at 10.5 ± 0.3.
